The text below walks through data of US9744137B2, “Topiramate compositions and methods of enhancing its bioavailability” (Supernus Pharmaceuticals, Inc., priority 2006, dated 2017).

For data set [1] the following is noted: cited from earlier work.
For data set [2] the following is noted: cited from earlier work. The source holds these as a separate data set.
Data set [3] deals with patients with epilepsy. The conditions noted are these: cited from earlier work; for time leading up to the first seizure (median seizure-free duration): monotherapy.
Data set [4] is described as follows: Degradation of topiramate in 0.1 N HCl (simulated gastric fluid) at 37° C., HPLC-ELSD. The format is physicochemical. The settings on record: drug substance, 24 hours of incubation in 0.1 N HCl at 37° C. As to the method: Degradation of topiramate was detected during a dissolution profile of Topamax® tablets in simulated gastric fluid (i.e., 0.1 N HCl). […] Topiramate analysis was carried out using HPLC equipped with Evaporative Laser Light Scattering Detector at 92° C. Separation was achieved using a C-8 reversed-phase column under isocratic conditions of 50% acetonitrile in water. The samples were kept at 4° C. throughout the analysis. Prior to sample injection, the system was equilibrated for 1 hr and subjected to a system suitability test. Linearity was evaluated by linearity curve with power fit. The samples were injected in duplicate and degradation was calculated using the sample area linearity slope and power.

Read-outs that look alike come from different tables or passages of the source.

As for `CC1(C)OC2[C@@H](CO[C@@]3(COS(N)(=O)=O)OC(C)(C)O[C@@H]23)O1` (stereo partly drawn) [topiramate, 2,3:4,5-Di-O-isopropylidene-beta-D-fructopyranose sulfamate], in data set [1] (migraine prophylaxis), the “plasma levels at steady state” value was 1200 to 4400 ng/mL. Also, the mean serum level in data set [1] (pediatric migraine study, daily dose 84.0+/−38.6 mg/day) is 2800 ± 1600 ng/mL. In addition, in data set [2] (in vivo), the “effect of food on pharmacokinetics” value was “not significantly affected by food”. In addition, the “mean elimination half life” value in data set [2] (in vivo) is “about 21 hours”. The “time to peak plasma drug concentrations” value in data set [2] (oral administration of an immediate release dosage form) is reported as “approximately 2 hours”. In data set [3] (9 patients who became seizure-free), the plasma topiramate concentration is 5.3 ± 2.6 µg/mL. In addition, the “time leading up to the first seizure (median seizure-free duration)” value in data set [3] (215 patients with partial epilepsy, serum concentrations <1.8 mg/L) was 84 days; in data set [3] (serum concentrations above 9.9 mg/L), 451 days; in data set [3] (serum concentrations between 1.8 and 9.9 mg/L), 194 days. Moreover, the “mean topiramate plasma concentration” value in data set [3] (positive responders) is “around 7 μg/mL”; in data set [3] (seizure-free patients) it was around 9 µg/mL. The topiramate degraded entry in data set [4] is listed as “approximately 70%”.
